Measured values from patent US5098613A, “Anti-inflammatory agents” (Eli Lilly and Company, priority 1990, dated 1992).
Where a name gives a salt, the structure may show the parent alone. Read-outs that look alike come from different tables or passages of the source.

Biological target: T1, leukotriene B4 specific receptor on the membrane of human neutrophils (Homo sapiens, UniProt Q15722)
T1 construct: incubating neutrophils (1×10^7 cells) with 0.1-0.2 nM ^3 H-LTB4; endogenous in cells; host or cells: human peripheral blood neutrophils (buffy coats of two blood donors)
Assay: Inhibition of Binding of ^3 H-LTB4 to Peripheral Human Neutrophils
Conditions: for inhibition at 10 µM: read-out: LTB4 Binding Inhibition; for inhibition at 1 µM: drug concentration 10^-6 M; for inhibition at 0.1 µM: drug concentration 10^-7 M
Procedure: The effectiveness of compounds to inhibit the binding of leukotriene B4 to a specific receptor on the membrane of human neutrophils was measured by using an adaptation of a radio-ligand binding assay developed by Goldman and Goetzl, J. Immunol., 129, 1600 (1982). Other investigators have developed similar assays (see, e.g., Kreisle, et al., J. Exp. Med., 157, 628 (1983) and Lin, et al., Prostaglandins, 28, 837 (1984)).
Cells used in the assay were isolated by standard techniques of centrifugation on Ficol-Hypaque, dextran 70 sedimentation and hypotonic lysis. The following procedure was used. Freshly-prepared buffy coat layers from two individuals were obtained from a local blood donor center. The cells were mixed and diluted to 484 ml. with phosphate buffered saline containing heparin (10 units/ml) and heat-inactivated calf serum (5%). This was divided into 20 ml. aliquots and the aliquots layered on top of Ficoll-Paque (12 ml.). The material was then centrifuged at 500 g. for 40 minutes at room temperature. The resulting upper layer of platelets and mononuclear cells was discarded. The lower layer containing erythrocytes and neutrophils was retained. Buffer was added (1 ml. per 4 ml. of lower layer) and the suspension mixed. For each milliliter of this mixture, 0.33 ml. of 6% Macrodex was added. After stirring, the cels were allowed to sediment for 1 hour at 37° C. The resulting erythrocyte pellet was discarded and the neutrophil enriched supernatant fluid centrifuged at 500 g. for 10 minutes at 4° C. Erythrocytes still present in this cell pellet were lysed by incubating the cells with 5-8 ml. ice-cold distilled water for 30-45 seconds. Subsequently, the volume was made up to 50 ml. by addition of ice-cold buffer and the cells resuspended. The suspension was then centrifuged at 300 g. for 10 minutes at 4° C. The cells were finally resuspended at a cell density of 2×10^7 cells/ml in the assay buffer. This buffer Consisted of Hanks' balanced salt solution and 0.1% ovalbumin (pH 7.3).
The radio-ligand binding assay was conducted by incubating neutrophils (1×10^7 cells) with 0.1-0.2 nM ^3 H-LTB4 (sp. act. 150-220 Curies/mmol) and test compound (1×10^-5 M and 1×10^-6 M) for 10 minutes at 4° C. The amount of bound ^3 H-LTB4 was then measured and compared with the amount bound in the absence of test compound. The assay was carried out in microcentrifuge tubes by adding first 10 μl test compound dissolved in DMSO, followed by adding 20 μl ^3 H-LTB4 diluted in assay buffer, and finally adding 500 μl of the cell suspension pension. At the end of the 10 minutes incubation, 300 μl of a mixture of dibutyl and dinonyl phthalate (7:2) were added and the tubes centrifuged for 2 minutes in a microcentrifuge. The radioactivity bound to the cell pellet was measured by scintillation spectroscopy. Appropriate corrections for nonspecific bonding of ^3 H-LTB4 were made.

[1] = drug concentration 10^-5 M, 4° C., 10 minutes

T1 sequence (Q15722 whole entry): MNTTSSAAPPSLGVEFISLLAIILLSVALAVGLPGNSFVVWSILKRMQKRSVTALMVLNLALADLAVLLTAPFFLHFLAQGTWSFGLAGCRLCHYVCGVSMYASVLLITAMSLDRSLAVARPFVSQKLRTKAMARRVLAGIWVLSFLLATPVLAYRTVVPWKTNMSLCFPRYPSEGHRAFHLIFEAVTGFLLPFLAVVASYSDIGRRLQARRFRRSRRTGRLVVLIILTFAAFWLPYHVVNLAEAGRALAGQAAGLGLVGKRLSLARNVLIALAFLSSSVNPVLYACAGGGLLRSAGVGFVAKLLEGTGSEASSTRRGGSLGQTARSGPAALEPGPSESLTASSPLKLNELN

Structure (SMILES)	inhibition at 10 µM [1]	inhibition at 1 µM (4° C., 10 minutes)	inhibition at 10 µM	inhibition at 0.1 µM (4° C., 10 minutes)
CC(=O)c1cc(C)c(OCCCCC#N)cc1O [Example 28, 5-(4-Acetyl-2-methyl-5-hydroxyphenoxy)-pentanenitrile]	77%	32%		
CCc1cc(C(C)=O)c(O)cc1OCCCCCn1cncn1 [Example 146]	81%	29%		
C=CCc1cc(C(C)=O)c(O)cc1OCCCCCCCC#N [Example 69, 8-(4-Acetyl-5-hydroxy-2-allylphenoxy)octanenitrile]	88%	51%		
C=CCc1cc(C(C)=O)c(O)cc1OCCCCCCCCCCC#N [Example 70, 11-(4-Acetal-5-hydroxy-2-allylphenoxy)-undecanenitrile]	50%	14%		
C=CCc1cc(C(C)=O)c(O)cc1OCCCCCC(N)=O [Example 96, 6-(4-Acetyl-5-hydroxy-2-allylphenoxy)hexanamide]	87%	37%		
CCc1cc(C(C)=O)c(O)cc1OCCCCCNC(C)=O [Example 138, N-[5-(4-Acetyl-2-ethyl-5-hydroxyphenoxy)-pentyl]acetamide]	98%	58%		
C=CCc1cc(C(C)=O)c(O)cc1OCCCCCC [Example 39, 4-(Hexyloxy)-2-hydroxy-5-allylacetophenone]	50%	9%		
C=CCc1cc(C(C)=O)c(O)cc1OCCCCc1nnn(C)n1 [Example 120, 2-Hydroxy-4-[4-(2-methyl-2H-tetrazol5-yl)butoxy]-5-allylacetophenone]	97%	55%		
C=CCc1cc(C(=O)c2ccccc2)c(O)cc1OCCCCC#N [Example 104, 5-(4-Benzoyl-5-hydroxy-2-allylphenoxy)pentanenitrile]	32%	5%		
CCc1cc(C(C)=O)c(O)cc1OCCCCCN [Example 137, 1-{4-[(5-Aminopentyl)oxy]-5-ethyl-2-hydroxyphenyl}ethanone]	43%	22%		
CCc1cc(C(C)=O)c(O)cc1OCCCCc1nnnn1CC(=O)O [Example 144, 5-[4-(4-Acetyl-2-ethyl-5-hydroxyphenoxy)-butyl]-1H-tetrazole-1-acetic acid]	63%	20%		
CCCCCCc1cc(C(C)=O)c(O)cc1OCCCCC#N [Example 29, 5-(4-Acetyl-2-hexyl-5-hydroxyphenoxy)-pentanenitrile]	51%	12%		
C=CCc1cc(C(C)=O)c(O)cc1OCCCCCC#N [Example 21, 6-(4-Acetyl-5-hydroxy-2-allylphenoxy)-hexanenitrile]	81%	32%		
CCc1cc(C(=O)CCCC(=O)O)c(O)cc1OCCCCC#N [Example 88, 5-[(4-Cyanobutoxy)-5-ethyl-2-hydroxybenzene]-5-oxopentanoic acid]	19%	-1%		
COCc1cc(C(C)=O)c(O)cc1OCCCCCCC#N [Example 129, 7-[4-Acetyl-5-hydroxy-2-(methoxymethyl)phenoxy]-hdptanentrile]	47%	7%		
CCCc1cc(C(C)=O)c(O)cc1OCCCCNC(C)=O [Example 77, N-[4-(4-Acetyl-5-hydroxy-2-propylphenoxy)-butyl]acetamide]	71%	23%		
C=CCc1cc(C(C)=O)c(O)cc1OCCCCCC(C)=O [Example 102]	97%	57%		

Structure (SMILES)	inhibition at 10 µM [1]	inhibition at 1 µM (4° C., 10 minutes)	inhibition at 10 µM	inhibition at 0.1 µM (4° C., 10 minutes)
CCc1cc(C(C)=O)c(O)cc1OCCCC(C)(C)C(=O)O [Example 134, 5-(4-Acetyl-2ethyl-5-hydroxyphenoxy)-2,2-dimethylpentanoic acid]	93%	45%		
C=CCc1cc(C(C)=O)c(O)cc1OCCCC [Example 40, 4-Butoxy-2-hydroxy-5-allylacetophenone]	31%	8%		
CCc1cc(C(C)=O)c(O)cc1OCCCCCCC(=O)NC [Example 99, 7-(-Acetyl-2-ethyl-5-hydroxyphenoxy)N-methylheptanamide]		54%	97%	
C=CCc1cc(C(=O)CC)c(O)cc1OCCCCC#N [Example 105, 5-[5-Hydroxy-4-(1-oxopropyl)-2-allylphenoxy]pentanenitrile]	76%	35%		
C=CCc1cc(C(C)=O)c(O)cc1OCCCCCCC [Example 37, 4-(Heptyloxy)-2-hydroxy-5-allylacetophenone]	31%	8%		
CCc1cc(C(C)=NO)c(O)cc1OCCCCCC(C)(C)C(=O)O [Example 152, 7-{4-[-(Hydroxyimino)ethyl]-2-ethyl-5-hydroxyphenoxy}-2,2-dimethylheptanoicacid]		41%		3%
CCCc1cc(C(C)=O)c(O)cc1OCCCCN [Example 74, 4-(4-Aminobutoxy)-2-hydroxy-5-propylacetophenone hydrochloride]	0%	0%		
CCCCCc1cc(C(C)=O)c(O)cc1OCCCCC#N [Example 31, 5-(4-Acetyl-5-hydroxy-2-pentylphenoxy)-pentanenitrile]	30%	14%		
CCc1cc(C(C)=O)c(O)cc1OCc1cccc(C(=O)O)c1 [Example 84]	81%	28%		
C=CCc1cc(C(C)=O)c(O)cc1OCCCCO [Example 44, 4-(4-Hydroxybutoxy)-5-allyl-2-huydroxy-aoetophenone]	47%	9%		
CCc1cc(C(C)=O)c(O)cc1OCCCC(C)(C)C#N [Example 133, 5-(4-Acetyl-2ethyl-5-hydroxyphenoxy)-2,2-dimethylpentanitrile]	89%	48%		
C=CCc1cc(C(C)=O)c(O)cc1OCCCCc1nnnn1C [Example 119, 2-Hydroxy-4-[4-(1-methyl-lH-tetrazol-5-yl)-butoxy]-5-allylacetophenone]	57%	13%		
C=CCc1cc(C(C)=O)c(O)cc1OCc1ccc(CC#N)cc1 [Example 71, 4-[(4-Acetyl-5-hydroxy-2-allylphenoxy)-methyl]benzeneacetonitrile]	30%	17%		
CCc1cc(C(C)=O)c(O)cc1OCCCCCCCC(C)(C)C(=O)N(C)O [Example 150, N-Methyl-N-hydroxy-9-(4-acetyl-2-ethyl-5-hydroxyphenoxy)-2,2-dimethylnonanamide]	90%	59%		
CCc1cc(CC)c(OCCCCCC(C)(C)c2nnn[nH]2)cc1O [Example 151, 2,4-Diethyl-5-{[6-methyl-6-(1H-tetrazol-5-yl)heptyl]oxy}phenol]	105%	103%		78%
C#CCCCCOc1cc(O)c(C(C)=O)cc1CC=C [Example 57, 4-(5-Hexynyloxy)-2-hydroxy-5-allylaceto-phenone]	73%	29%		
C=CCc1cc(C(C)=O)c(O)cc1OCCCCCCS(C)(=O)=O [Example 80, 2-hydroxy-4-[6-(methylsulfonyl)-hexyloxy]-5-allylacetophenone]		62%	100%	
